Assay results published in patent US5519115A, “Reverse antimicrobial peptides” (priority 1993, dated 1996).

Assays:
[1] = system: P3 Fusarium; assay: Antifungal bioassay (MCIC, spore germination); format: cell-based, P3 Fusarium (field isolate); details: 10^7 spores/test; mean after 24 hours of treatment, at least three replicates
Method: Fungi were grown on an appropriate medium, in this case a potato dextrose agar plate, for several weeks. At the end of that period, the plate was flooded with about 5 mL of sterile distilled water to harvest spores. The spore concentration was determined by use of a hemocytometer and the spore suspension was stored in a sterile tube at 4° C. until it was needed. Then 82 microliters of potato dextrose broth and 3 microliters of spore suspension (ranging from 10^5 to 10^7 spores total) were added to 12 wells in a 96 well microtiter plate for each AMPPP to be tested, with 1-4 replicate sets of 12 wells prepared for each AMPPP within a single experiment. […] The amount of spore germination and fungal growth was recorded as a quantitative measurement at each observation time using a system of pluses and minuses: [-] meant no germination having occurred, [+] meant swollen spores with an extended germ tube, [++] meant the beginnings of mycelial growth with the overall appearance of a loose lattice, and [+++] meant a dense mycelial growth with the overall appearance of a thick opaque meshwork. The MCIC value for each AMPPP tested was then recorded, where the MCIC value is defined as the lowest peptide concentration at which no spore germination occurred (rating=[-]). […]

[2] = system: isolated chloroplasts; assay: Oxygen evolution bioassay, phytotoxicity (isolated chloroplasts); format: cell-based, Spinach (Spinacia oleracea L. var. Melody)
Method: The following procedure for the preparation of chloroplasts to use in an oxygen electrode is similar to that of Gupta et al., "Development and Use of Chlorotetracycline Fluorescence as a Measurement Assay of Chloroplast Envelope-Bound Mg^2+, "Plant Physiol. 89, (1989) 753-761. Spinach (Spinacia oleracea L. var. `Melody`) was grown in 1:1 peat/vermiculite potting mix in a growth chamber with a 10 hour light period. The chamber temperature was maintained at 21° C. (day) and 16° C. (night) during the growth period. All plants were used for chloroplast isolation after 6-8 weeks of growth.
In order to obtain an enriched chloroplast fraction, about 12 g of deribbed spinach leaves were thoroughly washed and surface dried. The leaves were then cut into small pieces, each about 1/2 inch square, and were placed in a small blender jar containing 50 mL of chilled homogenization medium (0.33M sorbitol, 50 mM Hepes-NaOH, pH 6.8, 2mM Na2 EDTA, 1 mM MnCl2, 1 mM MgCl2). The tissue was blended twice for three second intervals on high speed in a blender. The resulting homogenate was filtered through four layers of cheesecloth and two layers of miracloth (Behring Diagnostics, La Jolla, Calif.) into two chilled 30 mL glass centrifuge tubes. The filtered solution was centrifuged for 1.0 minute at 750 g (2,200 RPM) in a JS 13.1 swinging bucket rotor in a Beckman J2-21M centrifuge (Beckman Instruments, Inc., Somerset, N.J.). The supernatant was then decanted and the pellet was gently resuspended by swirling at 0° C. About 15 mL of homogenization medium was added to each tube of chloroplasts before the chloroplasts were layered onto a 40% Percoll gradient (6 mL Percoll, 9 mL homogenization medium, and 0.03 g bovine serum albumin) in a 30 mL glass centrifuge tube. These tubes were centrifuged for 4.0 minutes at 2500 g (4000 RPM) in a JS 13.1 swinging bucket rotor in a Beckman J2-21M centrifuge. The supernatant was removed and the resulting pellet was resuspended in a small amount of homogenization medium (about 500 microliters).
Plastid concentration was generally expressed on a chlorophyll basis. Chlorophyll was determined by the method of Arnon "Copper Enzymes in Isolated Chloroplasts, Polyphenol Oxidase in Beta Vulgaris," Plant Physiol. 24, (1949) 1-15. About 50 microliters of chloroplast stock suspension was added to 10 mL of 80% acetone and this solution was incubated 5.0 minutes in the dark and then centrifuged for 5.0 minutes at 500 g (1630 RPM) in a Beckman GP centrifuge. The absorbance of the acetone-chloroplast solution was monitored at 645 nm, at 663 nm and at 730 nm. The chlorophyll concentration was then calculated as 10× [(absorbance at 645 nm×20.2)+(absorbance at 663 nm×8.02)--background at 730 nm]. This gave the amount of chlorophyll in micrograms for the original 50 microliters of chloroplasts. The concentration of chloroplasts was then adjusted with homogenization medium so that 50 microliters of suspension contained 26 micrograms of chlorophyll. These chloroplasts were only active for 11/2 to 2 hours and were therefore used immediately.
An oxygen electrode (Hansatech Instruments Ltd., Kings Lynn, Norfolk, England) was used to measure oxygen evolution from isolated chloroplasts. For a detailed discussion of the method see, D. Walker, "The Use of the Oxygen Electrode and Fluorescence Probes in Simple Measurements of Photosynthesis," supra. A saturated KCl solution was placed in the electrode well and a one-inch square of rolling paper or lens paper was placed in to the electrode well so that it soaked up KCl and formed an ionic bridge. A one-inch square of teflon membrane was then prepared, being careful not to touch its surface, and was placed over the soaked paper. Using the membrane applicator, an O ring was placed over the head of the electrode, thereby securing paper and membrane across the electrode. The CB-1D control box was turned on and the system was allowed to warm up approximately one hour before calibration. […]

Substance: Met-Mag 1 dimer (head-to-tail) [Peptide No. 9]
- MCIC Values With: P3 Fusarium [1]: 15+/-6 micrograms per mL
- inhibition of oxygen evolution [2]: 100%
